Test results from PMC9646836, “Tetrahydroquinolinone derivatives exert antiproliferative effect on lung cancer cells through apoptosis induction” (Scientific Reports, 2022).

Key:
[1] = tested on: apoptosis-related proteins in A549 cells; test: Western blotting of apoptosis-related proteins; format: cell-based, human
Experimental: The expression of apoptosis-related proteins was determined by Western blotting. Briefly, A549 cells were treated with compound 4a at its IC50 concentration for 6, 24, and 48 h. The cells treated with 1% v/v DMSO served as the negative control. The total protein content was extracted from the cells using the NP-40 cell lysis buffer (10 mM Tris–HCl pH 7.4, 10 mM NaCl, 3 mM MgCl2, 0.5% Nonidet P-40, cOmplete Mini EDTA-free Protease Inhibitor Cocktail). Then, 30 µg of protein extract was separated by 10% sodium dodecyl sulfate–polyacrylamide gel electrophoresis, and the separated proteins were transferred to microporous polyvinylidene difluoride membranes (Bio-Rad). The membranes were blocked with 5% bovine serum albumin in tris-buffered saline-Tween 20 (TBST) buffer (0.2 M Tris-base, 0.137 M NaCl, 0.1% Tween 20) for 1 h at RT, and incubated overnight with primary antibodies at 4 °C. The blots were washed three times with TBST and incubated with appropriate peroxidase-conjugated secondary antibodies for 1 h at RT. Then, the blots were washed in TBST for 30 min and developed using an enhanced chemiluminescence detection reagent kit (Thermo Fisher Scientific) and a ChemiDoc XRS + Imaging System (Bio-Rad). All materials and reagents were obtained from Sigma-Aldrich unless stated otherwise.

[2] = tested on: HCT-116; test: MTT cell viability assay, HCT-116; format: cell-based, human; details: mean ± SD, n = 3
Experimental: (§1) All new tetrahydroquinoline derivatives were assessed for cytotoxicity on a broad panel of cancer and normal cell lines, using the MTT assay. The half-inhibitory growth inhibitory concentration (IC50) values of each compound were calculated after 72 h of treatment and presented in Table 1. […] In this assay, the IC50 value of 5-FU and ETP was recorded as a positive control.
(§2) Non-small cell lung cancer cells A549 (CCL-185), breast cancer cells MCF-7 ([…]), hepatocarcinoma cells HepG2 ([…]), normal kidney cells HEK293 (CRL-1573), and osteosarcoma cells U-2 OS (HTB-96) were obtained from the American Type Culture Collection. HCT-116 cell line was kindly provided by prof. Bert Vogelstein (Johns Hopkins University, Howard Hughes Medical Institute, USA). The obtained A549 and MCF-7 cells were cultured in RPMI-1640 medium, HepG2 cells in Minimum Essential Medium Eagle medium, HEK-293 cells in Dulbecco’s Modified Eagle’s medium, and U-2 OS and HCT-116 cells in McCoy’s […] medium. All culture media were supplemented with 10% fetal bovine serum, 2 mM L-glutamine, and antibiotics (penicillin 62.6 µg/ml and streptomycin 40 µg/ml; Sigma-Aldrich). Both cancer and normal cells were cultured at 37 °C under a humidified atmosphere with 5% or 10% CO2 and routinely screened for Mycoplasma contamination. All materials and reagents were obtained from Corning unless stated otherwise.
(§3) The cytotoxic effect of the synthesized compounds was assessed by the MTT (4,5-dimethylthiazol-2-yl-2,5-diphenyltetrazoliumbromide; Sigma-Aldrich) assay. Briefly, the cells were seeded into 96-well transparent flat-bottom plates and allowed to attach overnight. On the next day, the cells were treated with compounds in the range of 0–50 µM for 72 h. Dimethyl sulfoxide (DMSO; Merck) and 5-fluorouracil (5-FU; Sigma-Aldrich) were used as a reference. After exposure to the compounds, 20 μl of the MTT solution at a concentration of 4 mg/ml was added to each well, and the plates were incubated again for 2–3 h at 37 °C. Next, the media in the wells was replaced with 100 μl DMSO to solubilize the formazan crystals. The absorbance was measured at 540 nm using an ASYS UVM340 microplate reader (Biochrom Ltd.). The IC50 value of the compounds was calculated using GraphPad Prism 9 software, based on the curves plotted with survival as a function of dose, averaged from three independent experiments.

[3] = tested on: HepG2; test: MTT cell viability assay, HepG2; format: cell-based; details: Homo sapiens, HepG2, 72 h, mean ± SD, n = 3
Experimental: as §1, §2, §3

[4] = tested on: Hela; test: MTT cell viability assay, Hela; format: cell-based; details: Homo sapiens, HeLa, 72 h, mean ± SD, n = 3
Experimental: as §1, §3

[5] = tested on: A549; test: MTT cell viability assay, A549; format: cell-based, human; details: Homo sapiens, A549, 72 h, mean ± SD, n = 3
Experimental: as §1, §2, §3

[6] = tested on: caspase-3/7 in A549 cells; test: Caspase-3/7 activation (flow cytometry); format: cell-based, human; details: A549, IC50 concentration
Experimental: Apoptosis induction via both intrinsic and extrinsic pathways is mediated by caspase cascade events. Therefore, in this study, the ability of 4a to activate two effector caspases (caspase-3 and caspase-7) was evaluated by flow cytometry.
Cells were seeded in a 5-cm^2 dish at a density of 15 × 10^5 cells per dish and allowed to attach overnight at 37 °C. Then, compounds at IC50 concentrations were added to the medium. After 6, 24, and 48 h, the cells were harvested and washed with PBS. Subsequently, the cells were resuspended in the binding buffer and stained with Annexin V Alexa Fluor™ 488 conjugate (#A13201; Thermo Fisher Scientific) for the apoptosis assay and with CellEvent™ Caspase-3/7 Green Flow Cytometry Assay Kit (#C10427; Thermo Fisher Scientific) for the activation of caspase-3/7, as per the manufacturer’s instructions. After incubation, the samples were immediately analyzed using a Guava EasyCyte 8 cell sorter (Merck Millipore) and FlowJo software v10. Each experiment was repeated three times.

[7] = tested on: HEK293; test: MTT cell viability assay, HEK293 normal kidney cells; format: cell-based, human
Experimental: as §1, §2, §3

[8] = tested on: A549 cells; test: Colony formation assay; format: cell-based, human; details: A549, 24 h pretreatment, 9 days culture, vs DMSO-treated control
Experimental: HCT-116 and A549 cells were seeded into six-well plates at a density of 500 cells per well and allowed to attach overnight. On the next day, the cells were pretreated with compound 4a at different concentrations or with 1% v/v DMSO for 24 h. After incubation, the cells were washed and cultured for 9 days. Next, the cells were fixed with methanol for 20 min and stained with 0.5% crystal violet (Sigma-Aldrich). Finally, the plates were dried overnight and imaged using a UVITEC Cambridge imaging system. Quantification was performed with ImageJ software. The surviving fraction was calculated as previously described. Each experiment was repeated three times.

[9] = tested on: MCF-7; test: MTT cell viability assay, MCF-7; format: cell-based, human; details: Homo sapiens, MCF7, 72 h, mean ± SD, n = 3
Experimental: as §1, §2, §3

[10] = A549, IC50 concentration, 6, 24, 48 h

Q: How did the PARP-1 band [1, 10] turn out when `O=c1[nH]c2c(c(-c3ccccc3)c1Cc1cccc3ccccc13)CCCC2` [Compound 4a, 3-(1-naphthylmethyl)-4-phenyl-5,6,7,8-tetrahydro-1H-quinolin-2-one] was run?
A: The PARP-1 band was “proteolytic cleavage”.

Q: And the “caspase-3, caspase-8, and caspase-9” value [1, 10]?
A: The value was “cleaved into their corresponding catalytically active forms”.

Q: And the “expression of BAD protein” value [1, 10]?
A: Its value is “higher than that in the control group”.

Q: And the “expression of BAX protein” value [1, 10]?
A: Its value is “higher than that in the control group”.

Q: And the “expression of BCL-2 protein” value [1, 10]?
A: Its value is “significantly decreased”.

Q: What about the “expression of BID” value [1, 10] of the same compound?
A: The value was “slightly activated”.

Q: And the “expression of AIF” value ([1]; A549, IC50 concentration, vs DMSO-treated control)?
A: Its value is “remained unchanged”.

Q: And the IC50 ([2]; 72 h)?
A: The IC50 was 12.2 ± 1.61 µM.

Q: What about the IC50 ([2]; Homo sapiens, HCT-116, 72 h) of the same compound?
A: Its IC50 is about 13 µM.

Q: And the IC50 [3]?
A: The IC50 was over 50 µM.

Q: And the IC50 [4]?
A: Its IC50 is over 50 µM.

Q: And the IC50 [5]?
A: The IC50 was 11.3 ± 0.67 µM.

Q: And the “activation of caspase-3/7” value ([6]; 24 and 48 h, vs vehicle)?
A: Its value is 3.9 ± 0.33 fold.

Q: What about the “increase in the activity of caspase-3/7” value ([6]; 6 h) of the same compound?
A: Its value is 2.32 ± 0.05 fold.

Q: And the IC50 ([7]; Homo sapiens, HEK293, MTT, 72 h, normal kidney cells, mean ± SD, n = 3)?
A: Its IC50 is 49 ± 2.21 µM.

Q: What about the “suppressive effect on human normal HEK293 kidney cells” value ([7]; tested concentrations, compared to A549 and HCT-116) of the same compound?
A: Its value is “almost no suppressive effect”.

Q: And the “number of observed colonies” value [8]?
A: The value was “significantly decreased”.

Q: And the IC50 [9]?
A: The IC50 was over 50 µM.
